These results are taken from patent US9957253B2, “Triaminopyrimidine compounds useful for preventing or treating malaria” (MMV MEDICINES FOR MALARIA VENTURE, priority 2014, dated 2018).

The nature of this data set: Pharmacokinetics in the blood of infected Pf/SCID mice. The format is in vivo. The settings on record: 40 mg/kg. How it is done:
Pharmacokinetics in the Blood of Infected Pf/SCID Mice:
Peripheral blood samples (25 μl) were taken at different times (0.25, 0.5, 1, 2, 4, 6, 8 and 23 hours), mixed with 25 µl of H2O mili Q and immediately frozen on dry ice. The frozen samples were stored at −80° C. until analysis. Vehicle-treated mice experienced the same blood-sampling regimen. Blood samples were processed by liquid-liquid extraction by mixing 10 μl diluted blood with 180 μl AcN:MeOH (80:20; v:v) mixture. Quantitative analysis by LC/MSMS was performed using UPLC (Waters) and Sciex API4000. The lower limit of quantification (LLOQ) in this assay was 0.005 μg/ml.

For `Cc1nc(Nc2ncc(N3CCN(C)[C@H](C)C3)c(Nc3cc(C)n(C)n3)n2)cc(C2CC2)c1F` [Example 13, (R)—N2-(4-cyclopropyl-5-fluoro-6-methylpyridin-2-yl)-N4-(1,5-dimethyl-1H-pyrazol-3-yl)-5-(3,4-dimethylpiperazin-1-yl)pyrimidine-2,4-diamine], the “Blood Cmin (minimum parasiticidal concentration, MPC)” value amounted to 40 nM.
